For series [1], the target named is T1, DDAH (Rattus norvegicus, UniProt O08557).
T1 construct: Rat kidney was homogenized in PBS; from tissue; host or cells: rat kidney homogenate, high-speed supernatant
In words: DDAH activity assay (rat kidney lysate, [14C]L-NMMA to [14C]citrulline). The series is classed as biochemical. The note with it: for inhibition at 1000 µM / Inhibition at 1 mM, %: 1 mM compound, [14C]L-NMMA 1 μmol/L, 1 h 37° C.; for inhibition at 100 µM / Inhibition at 100 μM (%): 100 μM compound. As to the method: Rat kidney was homogenized in PBS containing PMSF 1 mM, leupeptin 5 μg/ml, pepstatin 5 μg/ml, chymostatin 5 μg/ml, and the lysate was centrifuged (4000 rpm. 20 min then supernatant further centrifuged for 40000 rpm, 30 min, 4° C.). The supernatants were analyzed for DDAH activity; [^14[…]) was added to the cell lysates (final volume 100 μl) and incubated for 1 h at 37° C. Dowex resin (0.5 ml) at neutral pH was immediately added to samples to terminate the reaction and bind unmetabolized L-NMMA. [^14C]Citrulline formation was determined by scintillation counting (Hewlett Packard).

Series [2] concerns the target T2, iNOS (Mus musculus, UniProt P29477).
T2 construct: endogenous in cells; host or cells: RAW cells stimulated with LPS/IFN and TNF
The series is described as follows: iNOS activity Greiss assay in stimulated RAW cells. The note with it: Griess NOx, RAW cells stimulated 24 h with LPS/IFN and TNF, compound 0.5 mM, 550 nm; control 0.367 ± 0.021. The series is classed as cell-based. As to the method:
RAW cells were stimulated for 24 h with LPS/IFN and TNF, in the presence of the DDAH inhibitor compounds (0.5 mM). Levels of NOx secreted into the media by the cells were determined by Griess assay: Greiss reagent [1:1 sulfanilamide ([…]) in ortho-phosphoric acid (50%) and N-(1-napthyl)ethylenediamine dihydrochloride (1%)] was added as 100 μl volume to 100 μl cell culture media and the plate was read at 550 nm and analysed in relation to sodium nitrite and nitrate standards.
On the technique in general: Griess reagent forms a coloured azo dye with nitrite.

Series [3] concerns RAW cells. In words: Cell viability assay (MTT) in RAW cells.
Method: RAW cells were treated with DDAH inhibitor compound (0.5 mM) in complete media for 24 h; cells were subsequently assessed for viability by MTT assay. Cell culture media was removed from cells and replaced with 200 μl complete media containing 3-[4,5-Dimethylthiazol-2-yl]-2,5-diphenyltetrazolium bromide (MTT 0.2 mg/ml) for 30 min at 37° C. MTT containing media was removed and 100 ul DMSO was added to solubilize cells; after shaking, plates were read at OD550 nm.
In series [4] the test system is eNOS. The series is described as follows: eNOS assay ([14C]arginine conversion). The following applies: eNOS activity. The series is classed as biochemical. The method, then: Compounds to be tested were added to NOS assay buffer (HEPES 50 mM pH 7.2, FAD 5 μM, FMN 5 μM, BH4 10 μM, NADPH 1 mM, DTT 0.5 mM, CaCl2 1 mM, MgCl2 1 mM, calmodulin 50 nM, [^14C] arginine 100 μM) in a final volume of 100 μl and the reaction was initiated by addition of eNOS (eNOS 3.3. U/reaction, Alexis Biochemicals). Reactions were incubated for 1 h at 37° C. and the reaction was terminated by the addition of Dowex pH 5.5 (0.85 ml) to each tube. Tubes were vortexed and microfuged <12000 g, 5 min. 100 μl of the Dowex supernatant was added to 5 ml scintillation cocktail and was counted in a scintillation counter (Hewlett Packard). The compounds were tested at 1 mM and 0.1 mM concentrations. Activity is expressed as % of control where control contained no inhibitor, n=4. The DDAH inhibitors of the present invention tested had no significant effect on eNOS activity.

Setting [5] is: MTT, RAW cells, compound 0.5 mM, 24 h, OD550 nm, control 2.54 ± 0.26.

Molecules are shown by their SMILES. Read-outs that look alike come from different tables or passages of the source.

T1 sequence (O08557 2-285 limits assumed): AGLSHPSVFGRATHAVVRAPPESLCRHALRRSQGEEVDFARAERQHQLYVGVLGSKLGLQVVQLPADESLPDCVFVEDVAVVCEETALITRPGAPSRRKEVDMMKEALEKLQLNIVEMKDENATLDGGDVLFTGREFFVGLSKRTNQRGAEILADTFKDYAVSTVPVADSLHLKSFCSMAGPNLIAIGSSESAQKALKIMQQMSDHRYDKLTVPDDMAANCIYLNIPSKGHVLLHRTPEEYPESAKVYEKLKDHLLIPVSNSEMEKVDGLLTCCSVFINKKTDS

As a reminder, the inhibition is the drop in the measured response relative to a control, in per cent. A low value points to little suppression. The compound `NC(=Nc1ccccc1)NCC[C@H](N)C(=O)O` [Example 5, (S)-2-Amino-4-(N′-phenylguanidino)butanoic acid] displayed an inhibition at 1000 µM in series [1] of 65%.

Consider `CC(=N)NCCC[C@H](N)C(=O)O` [NIO, L-N-5-(1-iminoethyl)ornithine, reference compound], for which the “OD units drug ± sd” value in series [2] is given as 0.103 ± 0.002 OD units; in series [3] (setting [5]) it was 1.89 ± 0.41 OD units. Besides, the “% of control ± sd” value in series [4] (0.1 mM compound) was 4.14 ± 8.74 [3] % of control; in series [4] (1 mM compound), 6.25 ± 7.52 [5] % of control. As a reminder, the Inhibition is how much of the control response was suppressed. A lower Inhibition goes with little suppression. `NC(=NCc1cccs1)NCC[C@H](N)C(=O)O` [(S)-2-Amino-4-(N′-(2-thiophenemethyl)guanidino)butanoic acid]: the “Inhibition at 1 mM, %” value in series [1] was 34%.

As to `COCCN=C(N)NCC[C@H](N)C(=O)O` [Example 6, (S)-2-Amino-4-(N′-(2-methoxyethyl)guanidino)butanoic acid], in series [1], testing at 1000 µM gave an inhibition of 90%. Regarding `COCCN=C(N)NCC[C@H](N)C(=O)OCc1ccc(F)c(C(F)(F)F)c1` [Example 36, 3-Trifluoromethyl-4-fluorobenzyl (S)-2-amino-4-[(N′-(2-methoxyethyl))guanidino]butanoate], in series [1], the inhibition at 100 µM came to 50.6%. Take `N=C(NCC[C@H](N)C(=O)O)N1CCCCC1` [Example 15, (S)-2-Amino-4-[(piperidine-1-carboximidoyl)-amino]butanoic acid]: in series [1], 1000 µM produced 74% inhibition.

`CC(C)OCCN=C(N)NCC[C@H](N)C(=O)O` [Example 13, (S)-2-Amino-4-(N′-(2-isopropoxyethyl)guanidino)butanoic acid] showed an inhibition at 1000 µM in series [1] of 97%. For `N=C(NCC[C@H](N)C(=O)O)NCC1CCCO1` (stereo partly drawn) [Example 32, (2S)-2-Amino-4-N^G-((tetrahydrofuran-2-yl)methyl)guanidinobutanoic acid], the “Inhibition at 100 μM (%)” value in series [1] is listed as 10%.

With `COCCN=C(N)NCC[C@H](N)C(=O)OCCOC` [Example 41, 2-Methoxyethyl (S)-2-amino-4-[(N′-(2-methoxyethyl))guanidino]butanoate], testing at 100 µM in series [1] gave an inhibition of 59%. Take `CCCCOC(=O)[C@@H](N)CCNC(N)=NCCOC` [Example 25, (S)-2-Amino-4-(N′-(2-methoxyethyl)guanidino)butanoic acid butyl ester]: the inhibition at 1000 µM in series [1] was determined as 40%. In series [1], `COCCN=C(N)NCC[C@H](N)C(=O)OCc1cccc(Oc2ccccc2)c1` [Example 37, 3-Phenoxybenzyl (S)-2-amino-4-[(N′-(2-methoxyethyl))guanidino]butanoate] had an inhibition at 100 µM of 42.7%.

Regarding `NC(=NCc1ccccc1)NCC[C@H](N)C(=O)O` [Example 3, (S)-2-Amino-4-(N′-benzylguanidino)butanoic acid], testing at 1000 µM in series [1] gave an inhibition of 22%.

Consider `CN(C)CCN=C(N)NCC[C@H](N)C(=O)O` [Example 9, (S)-2-Amino-4-(N′-(2′-dimethylaminoethyl)guanidino)butanoic acid], for which the “Inhibition at 1 mM, %” value in series [1] is recorded as 25%.

Regarding `COCCN=C(N)NCC[C@H](N)C(=O)OCc1ccccc1F` [Example 35, 2-Fluorobenzyl (S)-2-amino-4-[(N′-(2-methoxyethyl))guanidino]butanoate], at 100 µM the inhibition in series [1] was 39.8%. For `NC(=NC1CCCCC1)NCC[C@H](N)C(=O)O` [Example 4, (S)-2-Amino-4-(N′-cyclohexylguanidino)butanoic acid], the inhibition at 1000 µM in series [1] was 51%. As to `NC(=NC1CC1)NCC[C@H](N)C(=O)O` [Example 8, (S)-2-Amino-4-(N′-cyclopropylguanidino)butanoic acid], the inhibition at 1000 µM in series [1] stood at 65%. For `CCCOC(=O)[C@@H](N)CCN(CCOC)C(=N)N` [Example 24, (S)-2-Amino-4-(N-(2-methoxyethyl)guanidino)butanoic acid propyl ester], in series [2], the “OD units drug ± sd” value was 0.351 ± 0.013 OD units. Moreover, the “% of control ± sd” value in series [4] (0.1 mM compound) is 113.5 ± 7.93 [2] % of control; in series [4] (1 mM compound), 93.97 ± 12.93 [4] % of control. Moreover, in series [1], the “Inhibition at 1 mM, %” value amounted to 64%. For the compound `COCCN=C(N)NCC[C@H](N)C(=O)OCc1cccc(C(F)(F)F)c1` [Example 39, 3-Trifluoromethylbenzyl (S)-2-amino-4-[(N′-(2-methoxyethyl))guanidino]butanoate], at 100 µM the inhibition in series [1] was 45.3%. Compound `CCOC(=O)[C@@H](N)CCNC(N)=NCCOC` [Example 23, (S)-2-Amino-4-(N′-(2-methoxyethyl)guanidino)butanoic acid ethyl ester] had an inhibition at 1000 µM in series [1] of 44%. The compound `C=CCN=C(N)NCC[C@H](N)C(=O)O` [Example 14, (S)-2-Amino-4-(N′-allylguanidino)butanoic acid] showed an inhibition at 1000 µM in series [1] of 70%. Take `CNC(=N)NCCC[C@H](N)C(=O)O` [L-NMMA, N^G monomethyl-L-arginine, reference compound]: the “OD units drug ± sd” value was 0.121 ± 0.003 OD units in series [2] and 2.22 ± 0.08 OD units in series [3] (setting [5]). Moreover, the “% of control ± sd” value in series [4] (1 mM compound) is 16.17 ± 15.78 [4] % of control. In series [1], `NC(=NCCOc1ccccc1)NCC[C@H](N)C(=O)O` [Example 11, (S)-2-Amino-4-(N′-(2-phenoxyethyl)guanidino)butanoic acid] displayed an inhibition at 1000 µM of 38%. With `COCCN=C(N)NCC[C@H](N)C(=O)OCc1cccc(C)c1` [Example 38, 3-Methylbenzyl (S)-2-amino-4-[(N′-(2-methoxyethyl))guanidino]butanoate], in series [1], the inhibition at 100 µM is 48.7%.

On to `COCCN=C(N)NCC[C@H](N)C(=O)OCc1ccccc1` [Example 26, (S)-2-Amino-4-(N′-(2-methoxyethyl)guanidino)butanoic acid benzyl ester], for which the “OD units drug ± sd” value in series [2] is 0.327 ± 0.026 OD units; in series [3] it was 2.40 ± 0.17 OD units. Further, the figures for the “% of control ± sd” value in series [4] (0.1 mM compound) and in series [4] (1 mM compound) were 101.2 ± 38.07 [2] % of control and 82.88 ± 10.08 [4] % of control, respectively. This compound also yielded an inhibition at 1000 µM in series [1] of 96%.

Take `COCCN=C(N)NCC[C@H](N)C(=O)OCc1ccc(OC)cc1` [Example 34, 4-Methoxybenzyl (S)-2-amino-4-[(N′-(2-methoxyethyl))guanidino]butanoate]: the inhibition at 100 µM in series [1] worked out at 22.1%. In turn, `CCCN=C(N)NCC[C@H](N)C(=O)O` [Example 2, (S)-2-Amino-4-(N′-propylguanidino)butanoic acid] displayed an inhibition at 1000 µM in series [1] of 41%. As to `CC(C)(C)CN=C(N)NCC[C@H](N)C(=O)O` [Example 10], the “Inhibition at 1 mM, %” value in series [1] is reported as 19%.

Regarding `N=C(NCCC[C@H](N)C(=O)O)NCC1CCCO1` (stereo partly drawn) [Example 31, (S)—N^G-((Tetrahydrofuran-2-yl)methyl)-arginine], in series [1], the “Inhibition at 100 μM (%)” value came out at 30%. Consider `CCCCCCCCN=C(N)NCC[C@H](N)C(=O)O` [Example 7, (S)-2-Amino-4-(N′-octylguanidino)butanoic acid], for which the inhibition at 1000 µM in series [1] is 27%.

In the case of `CC(C)N=C(N)NCC[C@H](N)C(=O)O` [Example 1, (S)-2-Amino-4-(N′-isopropylguanidino)butanoic acid], in series [1], testing at 1000 µM gave an inhibition of 38%. In series [1], `CSCCN=C(N)NCC[C@H](N)C(=O)O` [Example 12, (S)-2-Amino-4-(N′-(2-methylthioethyl)guanidino)butanoic acid] showed an inhibition at 1000 µM of 19%.

In series [1], `N=C(NCC[C@H](N)C(=O)O)N1CCOCC1` [Example 17, (S)-2-Amino-4-[(morpholine-4-carboximidoyl)-amino]butanoic acid] registered an inhibition at 1000 µM of 60%. `COCCN=C(N)NCC[C@H](N)C(=O)OCc1cccc(F)c1` [Example 40, 3-Fluorobenzyl (S)-2-amino-4-[(N′-(2-methoxyethyl))guanidino]butanoate]: the inhibition at 100 µM in series [1] is 33.2%. In series [1], `COCCN=C(N)NCC[C@H](N)C(=O)OCc1ccccc1OC` [Example 33, 2-Methoxybenzyl (S)-2-amino-4-[(N′-(2-methoxyethyl))guanidino]butanoate] came in with an inhibition at 100 µM of 47.4%. Take `N=C(NCC[C@H](N)C(=O)O)N1CCCC1` [Example 16, (S)-2-Amino-4-[(pyrrolidine-1-carboximidoyl)-amino]butanoic acid]: in series [1], the inhibition at 1000 µM was found to be 79%.

(Values after US8063104B2, “Guanidine derivatives as inhibitors of DDAH” (UCL Business PLC, priority 2004, dated 2011).)
